In US9416103B2, “Use of the aminoalkylindole JWH-073-M4 and related compounds as neutral CB1 receptor antagonists for the treatment of alcoholism, drug abuse, obesity, and obesity-related diseases” (The Board of Trustees of the University of Arkansas, priority 2012, dated 2016):
Several values for one entry are separate records, joined by “and”; a condition that tells them apart may be missing. Equal values may be shown once. Read-outs that look alike come from different tables or passages of the source. Marks after values point to notes of the source that are not given here.

Experiments:
[1] = molecular target: T1, CB1Rs (Mus musculus (Mouse), UniProt P47746); experiment: Competition receptor binding with [3H]CP-55,940 in mouse brain homogenates
Description: (§1) Mouse brain homogenates for in vitro assays were prepared as previously described. Briefly, whole brains were harvested from B6SJL mice, snap-frozen in liquid nitrogen and stored at −80° C. On the day membrane homogenates were to be prepared, brains were thawed on ice, then pooled in a 40 mL Dounce glass homogenizer and suspended in 5 volumes of ice cold homogenization buffer (50 mM HEPES, pH 7.4, 3 mM MgCl2, and 1 mM EGTA). Brains were then subjected to 10 complete strokes with an A pestle, followed by centrifugation at 40,000×g for 10 minutes at +4° C. Resulting supernatants were discarded, and the pellet was resuspended, homogenized and centrifuged similarly twice more, with supernatants being discarded. For the final resuspension and homogenization with a B pestle, ice-cold 50 mM HEPES was used in place of homogenization buffer, and homogenates were aliquoted and stored at −80° C. Protein concentrations of homogenates were determined using the BCA™ Protein Assay (Thermo Scientific, Rockford, Ill.).
Competition receptor binding was performed as previously described. […] Reactions were terminated by rapid vacuum filtration through Whatman GF/B glass fiber filters, followed by five washes with ice-cold buffer (50 mM Tris, 0.05% BSA). Filters were immediately placed into 7 mL scintillation vials to which 4 mL of ScintiVerse™ BD Cocktail scintillation fluid (Fisher Scientific, Fair Lawn, N.J.) was added. Bound radioactivity was determined after overnight incubation at room temperature and shaking, by liquid scintillation spectrophotometry with an efficiency of 44% (Tri Carb 2100 TR Liquid Scintillation Analyzer, Packard Instrument Company, Meriden, Conn.). Specific binding is expressed as total binding minus non-specific binding, and is graphed for each data point as a percentage of specific binding occurring in the absence of any competitor.
(§2) Curve fitting and statistical analyses for in vitro experiments were performed using GraphPad Prism™ version 5.0b (GraphPad Software Inc., San Diego, Calif.). The Cheng-Prusoff equation [45] was used to convert the experimental IC50 values obtained from competition receptor binding experiments to Ki values, a quantitative measure of receptor affinity. Non-linear regression for one-site competition was used to determine the IC50 for competition receptor binding. Curve fitting of concentration-effect curves via non-linear regression was also employed to determine the EC50 (a measure of potency) and Emax (a measure of efficacy) for [^35S]GTPγS concentration-effects experiments. […] Data are expressed as mean±SEM. The Student's t-test was used to determine statistical significance (P<0.05) between two groups, while a one-way ANOVA, followed by Tukey's Multiple Comparison post-hoc test, was used to determine statistical significance (P<0.05) between three or more groups.
The prepared analogues were subjected to in vitro pharmacological testing, which included receptor binding and functional assays at both cannabinoid receptors. Initial receptor binding screens at both CB1Rs and CB2Rs were conducted for the analogues prepared.

[2] = molecular target: T1, CB1Rs; experiment: [35S]GTPγS binding assay (G-protein activation) in mouse brain homogenates; format: biochemical
Description: as §1
[^35S]GTPγS binding was performed as previously described. Briefly, 25 μg of mouse brain homogenates were incubated for 30 minutes at 30° C. with 0.1 nM [^35S]GTPγS, 10 μM GDP, and either cannabinoid+/−antagonist, 10 μM unlabeled GTPγS (non-specific binding) or vehicle (total binding), in triplicate, in a volume of 1 mL of buffer containing 20 mM HEPES, 10 mM MgCl2, 100 mM NaCl, 20 units/L adenosine deaminase, 0.05% BSA and the appropriate DMSO (0.1%) and/or ethanol (<0.2%) vehicle. Assay buffer containing 100 mM KCl, instead of 100 mM NaCl, was used to increase basal G-protein activity in experiments examining inverse agonism. Reactions were terminated by quick vacuum filtration through Whatman GF/B glass fiber filters, followed by five washes with ice-cold buffer (20 mM HEPES, 0.05% BSA). Filters were immediately placed into 7 mL scintillation vials to which 4 mL of ScintiVerse™ BD Cocktail scintillation fluid was added. Bound radioactivity was determined after overnight incubation at room temperature and shaking by liquid scintillation spectrophotometry with an efficiency of 93% (Tri Carb 2100 TR Liquid Scintillation Analyzer, Packard Instrument Company, Meriden, Conn.). Specific binding is expressed as picomoles of [^35S]GTPγS bound per mg of protein.
as §2

[3] = tested on: NIH Swiss mice; experiment: Analgesia, tail-flick latency; format: in vivo, mouse; conditions: M4 10 mg/kg i.p. + JWH-018 3 mg/kg i.p.
[4] = tested on: NIH Swiss mice; experiment: Catalepsy, horizontal bar test; format: in vivo, mouse; conditions: M4 10 mg/kg i.p. + JWH-018 3 mg/kg i.p.
[5] = tested on: mice trained to discriminate THC; experiment: THC drug discrimination (generalization of JWH-018 to THC); format: in vivo, mouse; conditions: M4 10 mg/kg i.p. + JWH-018 1 mg/kg; training dose THC 10 mg/kg i.p.
[6] = molecular target: hCB2Rs (Homo sapiens (Human), UniProt P34972); experiment: Inhibition of forskolin-stimulated cAMP production (adenylyl cyclase) in intact CHO-hCB2R cells; format: cell-based
Description: Adenylyl cyclases are a family of membrane-bound enzymes that catalyze the intracellular production of the second messenger cAMP from ATP. Adenylyl cyclase activity is modulated by activated G-proteins: Gs-proteins stimulate activity, while Gi/o-proteins are inhibitory. Thus, agonists of G-protein coupled receptors (GPCRs) coupled to Gi/o-proteins, such as hCB2Rs, decrease cAMP production due to inhibition of adenylyl cyclase activity. In this assay, intact CHO-hCB2R cells are preincubated with [^3H]-adenine and treated with forskolin (10 or 30 μM) to stimulate adenylyl cyclase activity.
A functional assay screen for the inhibition of adenylate cyclase (AC) activity was chosen as the subsequent assay. […] Reaching full-receptor occupancy, which is predicted to produce maximal efficacy, is desirable at 10 μM concentration of all the compounds was used.

[7] = molecular target: CB1Rs endogenously expressed in Neuro2A cells (Mus musculus (Mouse), UniProt P47746); experiment: Adenylyl cyclase (AC) inhibition via CB1Rs endogenously expressed in Neuro2A cells; format: cell-based
[8] = tested on: mice; experiment: Thermoregulation assay, antagonism of JWH-073-induced hypothermia; format: in vivo, mouse; conditions: 10 mg/kg
Excerpt: Our hypothesis is that a dual activity CB1R antagonist/CB2R agonist will reduce the reinforcing effects of EtOH as well as reduce the conditioned rewarding effects of ethanol in mice. The compounds selected will firstly be put through a thermoregulation assay as a screen for potential cannabinoid receptor activity. Thermoregulation will be used as a screen because of the well-established hypothermic effects seen with the use of cannabinoid ligands. This assay was done using glass radiotelemetry probes that were surgically implanted in each mouse, which monitor core temperature in response to drug administration. […] This screen does indeed confirm the in vivo cannabinoid activity of TV-5-249 and TV-6-41 and it also illustrates the evident antagonist effects against agonist induced hypothermia.

[9] = mouse brain homogenates, 0.2 nM [3H]CP-55,940, read-out: [3H]CP binding Ki

CCCCn1cc(C(=O)c2cccc3ccccc23)c2cccc(O)c21 [Compound M4]
Ki ([1]; Table 3, read-out: mCB1R Ki): 24.2 ± 17.2 nM | Ki ([1]; mouse brain homogenates, 0.2 nM [3H]CP-55,940, listed as JWH-073-M4, read-out: [3H]CP binding Ki): ~120 nM | Ki [1, 9]: 122 nM | effect on basal [35S]GTPγS binding levels when tested alone ([2]; 0.1 nM to 10 μM): neither significantly increased (characteristic of agonists), nor decreased | Kb ([2]; EC90 concentration of CP-55,940 (100 nM), from IC50 by modified Cheng-Prusoff, read-out: Kb, antagonism of CP-55,940-induced [35S]GTPγS binding): 40.3 nM | antagonism of CB1R agonists and inverse agonists on [35S]GTPγS binding ([2]; M4 10 μM co-incubated with CP-55,940, JWH-018, JWH-073, Rimonabant or AM251): significantly antagonized the action of agonists | Kb ([2]; M4 1, 3, 10 μM shifting JWH-018 curve, read-out: Kb, Schild analysis against JWH-018): ~40 nM and 48.1 nM and 48 nM | Schild plot slope ([2]; against JWH-018): 0.97 | antagonism of JWH-018-induced analgesia [3]: no difference | antagonism of JWH-018-induced catalepsy [4]: no difference | antagonism of generalization of JWH-018 to THC (THC-appropriate responding) [5]: No change in THC-appropriate responding | inhibition of cAMP production relative to vehicle, concentration effect curve ([6]; 10 μM forskolin, n=1): 81% | inhibition of intracellular cAMP production, single concentration ([6]; 10 μM, 30 μM forskolin): 48% | potency (IC50) of inhibition of intracellular cAMP production ([6]; CHO-hCB2R cells): nanomolar potency | inhibition of adenylyl cyclase activity, reversed by O-2050 (1 μM) ([7]; M4 1 μM): inhibited activity of the downstream intracellular effector adenylyl cyclase | IC50 ([7]; Neuro2A cells): 225 nM | inhibition of AC-activity via CB1Rs, concentration-effect ([7]; Neuro2A cells): 50-60%

CCCCn1cc(C(=O)c2cccc3ccccc23)c2ccccc21 [JWH-073, (1-butyl-1H-indole-3-yl)-1-naphthalenyl-methanone]
Ki ([1]; Table 3, read-out: mCB1R Ki): 12.9 ± 3.4 nM | Ki [1, 9]: 12.9 ± 3.4 nM | [35S]GTPγS Binding, 1 μM ([2]; 1 μM): 0.27 ± 0.04 pmol/mg | [35S]GTPγS Binding, +O-2050 (1 μM) ([2]; 1 μM cannabinoid (100 nM for CP-55,940) co-incubated with CB1R antagonist O-2050 1 μM): 0.07 ± 0.02 pmol/mg | [35S]GTPγS Binding Emax ([2]; concentration-effect, mouse brain homogenates): 0.27 ± 0.01^a pmole/mg | EC50 ([2]; concentration-effect, mouse brain homogenates, read-out: [35S]GTPγS Binding EC50): 276 ± 65.3 nM | [35S]GTPγS Binding, 10 μM ([2]; receptor-saturating concentration 10 μM): 0.28±0.03 pmole/mg and 0.28 ± 0.03^c pmole/mg | hypothermic effect [8]: profound hypothermic effect
